Holding throughout (assay): DTP human tumour cell line panel, 48 h
The test system of assay [1] is SN12C.
Assay [2] concerns PC-3.
For assay [3], the system named is RPMI-8226.
Assay [4] deals with HCT-15.
The test system of assay [5] is EKVX.
Assay [6] relates to DU-145.
Assay [7] concerns M14.
The test system of assay [8] is LOX IMVI.
For assay [9], the system named is MOLT-4.
The test system of assay [10] is SF-539.
In assay [11] the test system is OVCAR-3.
Assay [12] has as its system HCT-116.
The subject of assay [13] is NCI/ADR-RES.
In assay [14] the test system is SF-268.
Assay [15] relates to 786-0.
The test system of assay [16] is UACC-62.
Assay [17] concerns HOP-92.
In assay [18] the test system is SK-MEL-2.
Assay [19] deals with HL-60.
The test system of assay [20] is SR.

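Results reflect a 48-hour exposure of cells in 96-well plates to compound at five concentrations. The concentration for 50% growth inhibition is given as GI50.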 Activity calls are given as the source filed them. Rule as the data show it: active = GI50 up to about 1.1 µM and inactive = higher. A value given as a limit tells only on which side of the number the result lay.

The term GI50 denotes the concentration giving 50% growth inhibition. On to `CCSc1n/c(=C\c2ccco2)c2nnnn12`, for which the GI50 in [1] was > 100 µM (inactive); in assay [2], > 100 µM (inactive); in [3], > 100 µM (inactive); in [4] it was greater than 100 µM; in assay [5], > 100 µM (inactive); in assay [6], > 100 µM (inactive). In addition, the GI50 in [7], in assay [8], in [9], in assay [10], in assay [11] and in assay [12] was > 100 µM (inactive) throughout. The GI50 in [13], in assay [14], in assay [15], in [16], in assay [17] and in assay [18] was > 100 µM (inactive) throughout.

Take `Cc1ccc(/C=C2\NC(=S)NC2=O)cc1`: the GI50 in [1] was > 100 µM (inactive); in assay [2], > 100 µM (inactive); in assay [3], > 100 µM (inactive); in assay [4] it was greater than 100 µM; in [5] it was 62.8 µM (inactive); in [6], > 100 µM (inactive). Moreover, the GI50 in [7] was > 100 µM (inactive); in [8], 40.3 µM (inactive); in assay [9] it was > 100 µM (inactive); in assay [10] it was > 100 µM (inactive); in assay [11], > 100 µM (inactive); in [12] it was > 100 µM (inactive). The GI50 in [13], in assay [14], in [15], in [16] and in assay [18] was > 100 µM (inactive) throughout.

For `CC(=O)O[C@H]1CC[C@@]2(C)C(=C[C@H](c3ccc(O)cc3)[C@H]3[C@@H]4CC[C@H](OC(C)=O)[C@@]4(C)CC[C@@H]32)C1`, the GI50 in assay [1] is 23 µM (inactive); in assay [2], 14.3 µM (inactive); in [3] it was 14 µM (inactive); in assay [4], 12.3 µM; in assay [5], 20.8 µM (inactive); in assay [6], 20.7 µM (inactive). For the same molecule, the GI50 in [7] was 19 µM (inactive); in assay [19], 19.6 µM (inactive); in assay [8], 14.1 µM (inactive); in assay [9], 18.4 µM (inactive); in assay [10] it was 21 µM (inactive); in [11], 17.3 µM (inactive). The GI50 is 15.8 µM (inactive) in [12]; 13.5 µM (inactive) in assay [13]; 19 µM (inactive) in assay [14]; 19.6 µM (inactive) in assay [15]; 10.4 µM (inactive) in assay [16]; 34.4 µM (inactive) in assay [17]. Further, the GI50 in [18] was 20.2 µM (inactive).

Take `Cc1[nH]c2ncn3[nH]c(=S)nc3c2c1Cc1ccccc1`: the GI50 is > 100 µM (inactive) in assay [1]; > 100 µM (inactive) in [2]; greater than 100 µM in assay [4]; > 100 µM (inactive) in assay [5]; > 100 µM (inactive) in assay [6]; > 100 µM (inactive) in assay [7]. Besides, the GI50 in assay [19], in assay [9], in assay [10], in assay [11], in assay [12] and in assay [13] was > 100 µM (inactive) in each case. The GI50 in assay [14], in assay [15], in assay [16], in assay [17] and in [18] was > 100 µM (inactive) in each case.

For `O=c1n(Cc2ccccc2)c(=O)n2c(=O)n(Cc3ccccc3)c(=O)n12`, the GI50 in assay [1] is > 100 µM (inactive); in [3], > 100 µM (inactive); in [4] it was greater than 100 µM; in assay [6], > 100 µM (inactive); in assay [19] it was > 100 µM (inactive); in assay [8], > 100 µM (inactive). The GI50 in assay [10] was 39.8 µM (inactive); in assay [12], > 100 µM (inactive); in [13] it was > 100 µM (inactive); in assay [14], > 100 µM (inactive); in [20], > 100 µM (inactive); in assay [15], > 100 µM (inactive). Besides, the GI50 in assay [16] and in assay [17] was > 100 µM (inactive) each time.

On to `CCCCCCCCCCCCCCCCCCNc1nc(=O)n(C2CC(O)C(COP(=O)(O)O)O2)cc1F` (configuration not stated), for which the GI50 in assay [1] was > 95.7 µM (inactive); in assay [2], 26.1 µM (inactive); in assay [3], > 63.2 µM (inactive); in assay [4], greater than 100 µM; in assay [5], 99.5 µM (inactive); in assay [6], > 57.4 µM (inactive). Moreover, the GI50 in [7] is > 100 µM (inactive); in assay [8] it was 58.9 µM (inactive); in assay [9], 36 µM (inactive); in [10], 15 µM (inactive); in [11], > 100 µM (inactive); in assay [12], 81.7 µM (inactive). In addition, the GI50 in assay [13] is > 35.6 µM (inactive); in assay [14] it was 49.4 µM (inactive); in [15] it was 45.2 µM (inactive); in assay [16] it was > 78.2 µM (inactive); in assay [18], > 100 µM (inactive).

With `CC(=O)NC1C(OCc2ccccc2)OC(CO)C(O)C1OCC(=O)N1CCCC1C(=O)N[C@@H](CCC(=O)NCCNCCNc1c2ccccc2nc2cccc([N+](=O)[O-])c12)C(N)=O` (some centres not stated), the GI50 was 1.39 µM (inactive) in assay [1]; 2.94 µM (inactive) in assay [2]; 0.37 µM (active) in [3]; 2.11 µM in [4]; 7.57 µM (inactive) in [5]; 0.968 µM (active) in [6]. For the same molecule, the GI50 in assay [7] was 2.92 µM (inactive); in assay [19], 3.78 µM (inactive); in [8] it was 4.55 µM (inactive); in assay [9] it was 1.33 µM (inactive); in assay [10] it was 3.27 µM (inactive); in [11] it was 5.65 µM (inactive). The GI50 in assay [12] is 0.979 µM (active); in [13], 7.45 µM (inactive); in assay [14], 2.41 µM (inactive); in assay [15], 2.14 µM (inactive); in assay [16], 5.24 µM (inactive); in [17], 1.37 µM (inactive). Besides, in assay [18], the GI50 was 3.67 µM (inactive).

As to `CCC/C(C)=N/NC(=S)SC.CCC/C(C)=N/NC(=S)SC.[Zn+2]`, the GI50 in assay [1] was 2.94 µM (inactive); in [2] it was 12.4 µM (inactive); in [3], 1.98 µM (inactive); in [4] it was 2.24 µM; in assay [5], 15 µM (inactive); in assay [6] it was 12 µM (inactive). Moreover, the GI50 in assay [7] was 11.1 µM (inactive); in assay [8], 1.48 µM (inactive); in [9], 1.47 µM (inactive); in assay [10], 13.7 µM (inactive); in assay [11], 10.2 µM (inactive); in [12], 10.4 µM (inactive). Further, the GI50 was 16.7 µM (inactive) in [13]; 14.1 µM (inactive) in assay [14]; 10.9 µM (inactive) in [15]; 10.9 µM (inactive) in assay [16]; 13.9 µM (inactive) in assay [18].

As for `O=c1[nH]c(=O)n(C2CC(O)C(CO)O2)cc1OCCCc1ccccc1` (configuration not stated), the GI50 in [1] was > 100 µM (inactive); in [2], > 100 µM (inactive); in assay [3], > 100 µM (inactive); in [4] it was greater than 100 µM; in assay [5], > 100 µM (inactive); in assay [6], > 100 µM (inactive). Further, the GI50 in assay [7], in [19], in assay [8], in [9], in assay [11] and in [12] was > 100 µM (inactive) in each case. The GI50 in assay [13], in assay [14], in assay [15] and in assay [16] was > 100 µM (inactive) each time.

In the case of `Cn1cc(S(=O)(=O)NC(=O)Nc2ccc(Cl)cc2)c(=O)c2ccc(Cl)cc21`, the GI50 is 99.3 µM (inactive) in [1]; 76.6 µM (inactive) in assay [2]; 25.7 µM in assay [4]; > 100 µM (inactive) in [5]; > 100 µM (inactive) in assay [7]; > 100 µM (inactive) in assay [8]. The GI50 in assay [9] was 85.5 µM (inactive); in [10], > 100 µM (inactive); in assay [11] it was > 100 µM (inactive); in assay [12] it was 84.1 µM (inactive); in [13], 38 µM (inactive); in assay [14], > 100 µM (inactive). Besides, the GI50 was 43.8 µM (inactive) in [20], > 100 µM (inactive) in assay [15], 20.9 µM (inactive) in [16] and > 100 µM (inactive) in assay [18].

Turning to `CNC(C#N)c1ccc(OC)cc1` (configuration not stated), the GI50 was > 100 µM (inactive) in assay [1]; 54 µM (inactive) in assay [2]; greater than 100 µM in [4]; > 100 µM (inactive) in assay [5]; > 100 µM (inactive) in assay [6]; > 100 µM (inactive) in assay [7]. Also, the GI50 in assay [19] is 28.6 µM (inactive); in assay [8] it was > 100 µM (inactive); in assay [9], 43.7 µM (inactive); in [10] it was > 100 µM (inactive); in [11], 61 µM (inactive); in assay [12], 57 µM (inactive). Besides, the GI50 is > 100 µM (inactive) in [13]; > 100 µM (inactive) in assay [14]; > 100 µM (inactive) in [15]; > 100 µM (inactive) in [16]; 92.5 µM (inactive) in assay [17]; 26.4 µM (inactive) in assay [18].

For `CN(C)CCNC(=O)c1cccc2nc3c(ccc4ccccc43)nc12`, the GI50 is 2.48 µM (inactive) in [1]; 2.79 µM (inactive) in [2]; 1.91 µM (inactive) in assay [3]; 1.61 µM in [4]; 5.74 µM (inactive) in assay [5]; 4.85 µM (inactive) in assay [6]. The GI50 in assay [7] was 2.49 µM (inactive); in assay [19], 1.17 µM (inactive); in assay [8] it was 1.08 µM (active); in assay [9], 0.327 µM (active); in assay [10], 1.8 µM (inactive); in assay [11], 7.89 µM (inactive). The GI50 in [12] is 1.75 µM (inactive); in assay [14] it was 0.675 µM (active); in [20], 0.362 µM (active); in assay [15], 2.91 µM (inactive); in [16], 2.45 µM (inactive); in assay [17] it was 3.61 µM (inactive). Further, the GI50 in assay [18] is 1.91 µM (inactive).

Source of the values: ChEMBL document CHEMBL1201862, “PubChem BioAssay data set” (2004).
